Assays:
[1] = tested on: human prostate cancer PC3 cells; assay: EB1 cellular assay (Eb1 Comet assay, microtubule disruption); format: cell-based; settings: PC-3, lowest active concentration: Eb1 foci absent in at least 50% of treated PC3 cells, 1 hour, read-out: Eb1 LAC
Experimental: The Eb1 Comet assay relies on the detection of the Eb1 protein at the plus end of polymerizing microtubules (Mimori-Kiyosue, 2000) using indirect immunofluorescence. Disruption of microtubule dynamics through de-polymerization or stabilization results in a de-localization of Eb1 from the growing microtubule ends and this is visualized by the disappearance of Eb1 containing cytoplasmic foci.
Briefly, human prostate cancer PC3 cells obtained from the American Type Culture Collection were grown in 96-well plates (Greiner, cat. no. 655090) in HAM's F12 medium as recommended by the provider (ATCC). The cells were treated for 1 hour at 37° C. with compounds dissolved in DMSO (0.6% final DMSO concentration). The culture medium was then removed by aspiration and the cells were fixed by adding cold methanol (−20° C.). After a 15 minutes incubation at −20° C., the cells were washed twice with DPBS (Gibco) containing 0.5% Triton X-100. Mouse Eb1 antibody (BD Transduction Laboratories, cat. no. 610534) was added to the cells (1/250 dilution in DPBS containing 1% BSA) and incubated overnight at room temperature. The antibody was subsequently removed and the cells washed twice with DPBS, 0.5% Triton X-100. Secondary goat anti-mouse antibody conjugated to Alexa 488 fluorescent dye (Molecular Probes) was added at a 1/500 dilution in DPBS, 1% BSA and incubated for 1 hour at 37° C. The cells were washed twice with DPBS, 0.5% Triton X-100 and then DPBS containing 0.5% Triton X-100 and 1/5000 Hoechst 33342 (Molecular Probes) was added. Microscopy based Eb1 foci visualization was carried out using an IN Cell Analyser 1000 (Amersham Biosciences) using a 20× objective. Compound dependent microtubule disruption was visually determined by the disappearance in Eb1 foci. The lowest active concentration (LAC) was determined as the concentration where Eb1 foci were absent in at least 50% of the treated cells. Herein the effects of test compounds are expressed as pLAC (the negative log value of the LAC-value)

Ba/F3-Flt3 cells = molecular target: T1, Ba/F3-Flt3 cells (Homo sapiens, UniProt P36888, cells depend on it, form not given); assay: Ba/F3-Flt3 assay (Alamar Blue); format: cell-based, murine; settings: without IL3
T1 construct: Ba/F3-flt3 − IL3 pIC50; other: without IL3
T1 sequence (P36888 1-993): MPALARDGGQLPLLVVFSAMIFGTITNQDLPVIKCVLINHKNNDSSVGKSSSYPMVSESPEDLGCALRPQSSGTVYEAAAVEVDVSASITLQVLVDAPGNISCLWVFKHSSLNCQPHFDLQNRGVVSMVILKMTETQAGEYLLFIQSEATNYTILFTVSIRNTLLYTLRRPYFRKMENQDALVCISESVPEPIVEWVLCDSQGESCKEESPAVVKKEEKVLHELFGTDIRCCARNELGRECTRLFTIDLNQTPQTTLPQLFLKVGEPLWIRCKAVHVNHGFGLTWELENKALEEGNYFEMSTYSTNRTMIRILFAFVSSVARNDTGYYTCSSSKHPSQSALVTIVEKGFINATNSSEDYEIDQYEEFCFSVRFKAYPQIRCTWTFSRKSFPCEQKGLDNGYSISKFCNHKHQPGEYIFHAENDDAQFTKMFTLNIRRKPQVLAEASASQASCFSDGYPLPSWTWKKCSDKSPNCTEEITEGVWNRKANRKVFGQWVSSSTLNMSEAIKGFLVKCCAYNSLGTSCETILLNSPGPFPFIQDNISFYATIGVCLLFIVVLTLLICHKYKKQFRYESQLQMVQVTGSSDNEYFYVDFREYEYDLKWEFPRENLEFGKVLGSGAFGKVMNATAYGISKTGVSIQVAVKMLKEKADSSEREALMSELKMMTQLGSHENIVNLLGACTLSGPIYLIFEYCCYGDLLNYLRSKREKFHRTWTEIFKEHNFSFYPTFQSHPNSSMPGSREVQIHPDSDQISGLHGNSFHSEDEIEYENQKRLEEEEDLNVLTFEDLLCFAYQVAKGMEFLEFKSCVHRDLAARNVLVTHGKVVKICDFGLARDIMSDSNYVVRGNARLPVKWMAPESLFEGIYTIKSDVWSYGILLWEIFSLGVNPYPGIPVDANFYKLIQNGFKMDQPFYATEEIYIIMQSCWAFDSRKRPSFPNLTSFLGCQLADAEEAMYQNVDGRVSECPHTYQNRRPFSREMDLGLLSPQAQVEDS
Outline: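 Ba/F3-Flt3 cells in phenol red-free RPMI-1640 with 10% FCS were plated, and compound dilutions were added 24 h later at 0.2% DMSO final. After 24 h at 37 °C, Alamar Blue was added for 4 h and fluorescence was read (ex 544/em 590 nm) to derive IC50. The IL3 condition added 10 ng/ml murine IL3 during compound exposure.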

Ba/F3-flt3 − IL3 pIC50 (Ba/F3-Flt3 cells)	SMILES	minimal effective concentration [1] [µM]
<5	CC(C)Oc1cc(NC(=O)NCC(F)(F)F)cc(-c2cnc3cc(-c4nccc(C(C)(C)CO)n4)ccn23)c1 [Compound F-27, 1-(3-{7-[4-(2-Hydroxy-1,1-dimethylethyl)-pyrimidin-2-yl]-imidazo[1,2-a]pyridin-3-yl}-5-isopropoxy-phenyl)-3-(2,2,2-trifluoro-ethyl)-urea]	> 10
<5	Cc1cn(-c2ccn3c(-c4cc(NC(=O)NCC(F)(F)F)cc(OC(C)C)c4)cnc3c2)cn1 [Compound F-28, 1-{3-Isopropoxy-5-[7-(4-methylimidazol-1-yl)-imidazo[1,2-a]pyridin-3-yl]-phenyl}-3-(2,2,2-trifluoro-ethyl)-urea]	5
<5	CC(C)Oc1cc(NC(=O)NCC(F)(F)F)cc(-c2cnc3cc(-c4nccc(C(C)C)n4)ccn23)c1 [Compound F-29, 1-{3-Isopropoxy-5-[7-(4-isopropyl-pyrimidin-2-yl)-imidazo[1,2-a]pyridin-3-yl]-phenyl}-3-(2,2,2-trifluoroethyl)-urea]	> 10
